According to patent US20250032483A1, “COMPOSITIONS AND METHODS FOR TREATING PAIN” (ICAHN SCHOOL OF MEDICINE AT MOUNT SINAI, priority 2021, published 2025):
“Also recorded” adds a separate entry of the source.

Legend:
[1] = test system: paw incision model mice; experiment: Locomotor activity after paw incision; assay type: in vivo; conditions: Day 1 post-paw incision; YM155 vs saline
Protocol: (§1) The inventors also tested whether YM155 could be used to prophylactically reduce pain experienced after acute post-operative injuries. For this, the inventors used the paw incision model and pre-treated animals at a dose of 5 mg/kg i.p, for seven days. Animals were not treated with drug after the incision.

[2] = intravenously-treated mice; cited from earlier work
[3] = test system: paw incision model mice; experiment: Von Frey assay, paw incision model (pre-treatment); assay type: in vivo; conditions: pre-treatment 5 mg/kg i.p. for seven days; no drug after incision; vs saline
Protocol: as §1
(§2) For studies using models of peripheral inflammation, two-to three-month old mice received 30 μL left hindpaw injections of Complete Freund's Adjuvant (CFA: diluted 1:1 in saline) or IFNB injections (300 U per 25 μL), as described previously. For studies using the post-operative incision model, two-to three-month-old mice received an incision from the posterior plantar surface of the hindpaw to the middle of the paw pads, in which dermis and superficial muscle was cut and dermis was sutured afterwards. […]
(§3) Hamsters/mice were placed on a raised grid platform in plastic containers and were allowed to habituate to their environment for a minimum of 10 minutes. Afterwards, filaments of ascending forces were applied to the left hindpaw and responses were recorded. […] Progression to the next filament was determined by recording of positive or negative responses for three out of five applications with each filament. […]

[4] = Body weight during YM155 administration, CFA model; assay type: in vivo, mice; conditions: 5 mg/kg i.p. QD; first 9 days of treatment
Protocol: (§4) The inventors also tested whether YM155 had sustained effects on sensory hypersensitivity after the expected window of activity (approximately 24 hours post-injection, based on a ˜one hour half-life in intravenously-treated mice).
For studies using models of peripheral inflammation, two-to three-month old mice received 30 μL left hindpaw injections of Complete Freund's Adjuvant (CFA: diluted 1:1 in saline) or IFNB injections (300 U per 25 μL), as described previously. For studies using the post-operative incision model, two-to three-month-old mice received an incision from the posterior plantar surface of the hindpaw to the middle of the paw pads, in which dermis and superficial muscle was cut and dermis was sutured afterwards. CFA and paw incision groups of mice received daily intraperitoneal (i.p.) injections of saline (vehicle) or YM155 (Tocris Biosciences), an Interleukin Enhancer Binding Factor 3 (ILF3) inhibitor (2.5 or 5 mg/kg diluted in saline).

[5] = test system: CFA model of peripheral inflammation in female mice; experiment: Von Frey assay, CFA model; assay type: in vivo; conditions: 5 mg/kg i.p. QD, vs saline
Protocol: (§5) The inventors used the CFA model of peripheral inflammation in female mice to determine the impact of ILF3 inhibition in sensory hypersensitivity behaviors associated with inflammatory pain states. […] To identify any immediate analgesic effects of YM155 under local, peripheral inflammation conditions, the inventors first tested CFA-injected mice in the Von Frey and Hargreave's assays at 30 minutes post-drug administration.
as §4
For studies using models of peripheral inflammation, two-to three-month old mice received 30 μL left hindpaw injections of Complete Freund's Adjuvant (CFA: diluted 1:1 in saline) or IFNB injections (300 U per 25 μL), as described previously. […]
as §3

[6] = test system: mice; experiment: Toxicity observed on dosing in mice; assay type: in vivo
[7] = test system: CFA model of peripheral inflammation in female mice; experiment: Hargreaves' thermal beam assay, CFA model; assay type: in vivo; conditions: 5 mg/kg i.p. QD, vs saline
Protocol: as §5, §4, §2
The CFA model induces thermal hypersensitivity for 10-14 days on average. […] Three measurements were recorded and averaged for each hindpaw, with each measurement taking place at least two minutes apart.

[8] = test system: interferon-induced mechanical hypersensitivity in mice; experiment: Von Frey assay, hindpaw IFNβ injection model; assay type: in vivo
Excerpt: While the CFA model promotes both peripheral interferon and cytokine signaling. the inventors wanted to investigate the role of ILF3 inhibition in a model of isolated interferon signaling to better understand its role in virus-induced hypersensitivity. For this, the inventors implemented hindpaw interferon β (IFNβ) injections. The inventors compared mechanical thresholds between a group of female mice that received no IFNβ injection and daily saline (Naïve-Saline), a group that received a single IFNβ injection and daily saline (IFNβ-Saline). and a group that received a single IFNβ injection and immediate daily administration of YM155 (5 mg/kg i.p. BID: IFNβ-YM155). […] The inventors therefore performed an experiment in which a Naïve-Saline and IFNβ-Saline group began receiving YM155 (2.5 mg/kg i.p. BID) after mechanical thresholds were taken one day after intraplantar injections. […] ILF3 inhibition is effective at suppressing interferon-induced hypersensitivity in both mouse sexes. […]
as §3

[9] = CFA-injected female mice, 30-60 minutes after administration

COCCn1c2c([n+](Cc3cnccn3)c1C)C(=O)c1ccccc1C2=O [YM155]
locomotion / locomotor activity [1]: No differences in locomotion were observed; also recorded: no changes in locomotor activity
half-life [2]: one
mechanical hypersensitivity after paw incision [3]: significantly lower mechanical hypersensitivity after paw incision; also recorded: significant reduction in mechanical hypersensitivity
post-CFA weight [4]: No changes in post-CFA weight were observed
mechanical thresholds (von Frey), sustained ([5]; CFA mice, ~24 hours after administration, PD-D5, PD-D7, PD-D9): increased mechanical thresholds in a sustained fashion; also recorded: sustained recovery of mechanical thresholds
mechanical (von Frey) thresholds [5, 9]: increased mechanical thresholds; also recorded: increased von Frey thresholds
toxicity ([6]; female mice, 20 mg/kg): lethal toxicity
toxicity ([6]; male mice, 2.5 mg/kg i.p. BID): did not observe toxicity
toxicity ([6]; male mice, 5 mg/kg dose): increased sensitivity to the drug and subsequent toxicity
thermal thresholds / Hargreaves' withdrawal latency, sustained ([7]; CFA mice, ~24 hours post-injection, six consecutive days of administration (PD-D6)): increased thermal thresholds in a sustained fashion; also recorded: significantly higher withdrawal latency
thermal thresholds / Hargreaves' response times [7, 9]: increased thermal thresholds; also recorded: increased Hargreaves' response times
interferon-induced mechanical hypersensitivity (mechanical thresholds) ([8]; female mice, hindpaw IFNβ 300U/25 μL, concurrent YM155 5 mg/kg i.p., days 1 and 3 after IFNβ, 5 mg/kg): interrupted the onset of interferon-induced mechanical hypersensitivity; also recorded: no change in thresholds
mechanical thresholds, IFNβ group ([8]; male mice, 2.5 mg/kg i.p. BID started one day after intraplantar injection, by day three): substantial increase in mechanical thresholds
